{"source": "paper PMC10799935", "about": "“Discovery of a peripheral 5HT2A antagonist as a clinical candidate for metabolic dysfunction-associated steatohepatitis” (Nature Communications, 2024)", "key": {"α-SMA": {"test_system": "α-SMA", "test": "CDAHFD mice: α-SMA immunohistochemical staining", "format": "in vivo, mouse", "set-up": "α-SMA immunohistochemical staining (a-SMA area), individual mouse / α-SMA immunohistochemical staining (a-SMA area), Average: unit not given here", "details": "for α-SMA immunohistochemical staining (a-SMA area), Average / α-SMA immunohistochemical staining (a-SMA area), individual mouse: CDAHFD mice; for α-SMA immunohistochemical staining (a-SMA area), Average: group average n=5, CDAHFD+Vehicle 6.348, Vehicle 0.808; for α-SMA immunohistochemical staining (a-SMA area), individual mouse: individual animals No. 1-5 (Fig.4f)", "text": "C57BL/6 J male mice were purchased from the Japan SLC. Inc (Hamamatsu, Japan). Mice (5 weeks old) were fed Teklad Certitied Irradiated Global 18% protein rodent diet purchased from Dooyeol Biotech Co. Ltd (Seoul, South Korea) during the acclimation period. The liver fibrosis/inflammation-induced groups were CDAHFD-fed (A06071302, Research diet). […] All animal experiments complied with the relevant ethical regulations.\nMouse liver tissues were fixed in 4% formalin solution (Sigma–Aldrich, St. Louis, MO, USA) and embedded in paraffin. 4-μm-thick liver sections were deparaffinized in xylene, and rehydrated through descending grades of ethanol. To evaluate liver fibrosis, sections were stained with Sirius red solution and subjected to immunohistochemical staining. Tissue sections, after deparaffinization, underwent a 16-hour incubation in a solution containing 0.1% Direct Red 80 (365548, Sigma-Aldrich) dissolved in Picric acid (P-201, Spectrum Chemical, CA, USA) for Sirius red staining. The sections were briefly immersed in a 0.01 N HCl solution (1129, Ducksan, Republic of Korea) for 2 min. and then rinsed with distilled water for destaining. Subsequently, the sections underwent dehydration through […] grades of ethanol. Immunohistochemical staining was performed using the Polyview Plus HRP-DAB (anti-Rabbit) Kit (ENZ-KIT159-0150, ENZO Life Science, NY, USA) following the manufacturers’ instructions. Deparaffinized sections were boiled in IHC-TekTM Epitope Retrieval solution (IW-1100, IHCWORLD, MD, USA) for 45 min., cooled for 1 h, incubated in a 3% H2O2 solution (69355-0350, JUNSEI, Japan) for 15 min., washed, and then incubated overnight with primary antibodies (α-SMA, ab5694, Abcam, 1:500 dilution; TNF-α, ab6671, Abcam, 1:100 dilution and IL-1β, ab9722, Abcam, 1:100 dilution). Subsequently, the sections were treated with Polyview Plus HRP for 2 h and developed with DAB chromogen/substrate. Stained […] sections were confirmed by light microscopy (Olympus BX53 upright microscope, Tokyo, Japan). The degree of hepatic fibrosis and immunohistochemical staining was quantified by morphometric analysis of stained liver sections using NIH ImageJ software."}, "HFD-fed C57BL/6J mice": {"test_system": "HFD-fed C57BL/6J mice", "test": "DIO mice: body composition (fat and lean mass)", "format": "in vivo, mouse", "set-up": "Body Mass RAW Fluid / Body Mass RAW Fat body mass / Body Mass RAW Lean body mass / Fat Body: Mean Diff., Vehicle vs. 11c / Lean Body: Mean Diff., Vehicle vs. 11c: unit not given here", "details": "for Fat Body: Mean Diff., Vehicle vs. 11c / Lean Body: Mean Diff., Vehicle vs. 11c: Dunnett's test; for Body Mass Analysis (%) Fat body mass / Body Mass Analysis (%) Lean body mass / Body Mass RAW Fat body mass / Body Mass RAW Lean body mass / Body Weight (body mass sheet) / Body Mass Analysis (%) Fluid / Body Mass RAW Fluid: DIO mice, individual mice and group Mean; for Body Weight (body mass sheet): in g (unit assumed)", "text": "For in vivo efficacy in DIO models and CDAHFD models, the experimental protocol for this study was approved by the Institutional Animal Care and Use Committee (IACUC) at the Korea Advanced Institute of Science and Technology (No. KA2023-027-v2) or Kyungpook National University (No. KNU-20200134). All relevant ethical guidelines were followed. C57BL/6 J male mice (11 weeks old) were purchased from the Charles River Japan and were housed in a specific pathogen-free barrier facility under a regular light-dark cycle (12-hour light/12-hour dark) at 24°C with 40–60% humidity. Food (standard chow diet, Envigo, 2018S) and water were provided ad libitum. […] Mice were euthanized by the method of cervical dislocation. The measurement of lean and fat mass in live mice was performed by a body composition analyzer (LF50 BCA-analyzer, Bruker). After 6 h of fasting, mice were sacrificed, and tissue samples were obtained."}}, "note": "Where “and” joins values, the source holds several entries; their conditions need not be identical. Equal entries are not always repeated.", "data": [{"smiles": "Cc1nc2n(c(=O)c1CCN1CCC(=C3c4ccc(Cl)cc4CCc4cccnc43)CC1)CCCC2O", "note": "(stereo not shown) [Compound 11c]", "values": [{"measurement": "α-SMA immunohistochemical staining (a-SMA area), Average", "setting": "α-SMA; 11c 5 mpk", "value": 2.563}, {"measurement": "α-SMA immunohistochemical staining (a-SMA area), individual mouse", "setting": "α-SMA; 11c 5 mpk", "value": "2.929 and 2.447 and 3.505 and 2.773 and 1.159"}, {"measurement": "α-SMA immunohistochemical staining (a-SMA area), Average", "setting": "α-SMA; 11c 10mpk", "value": 3.310}, {"measurement": "α-SMA immunohistochemical staining (a-SMA area), individual mouse", "setting": "α-SMA; 11c 10mpk", "value": "3.665 and 3.079 and 3.824 and 3.446 and 2.538"}, {"measurement": "α-SMA expression (immunohistochemical staining)", "setting": "α-SMA; CDAHFD-fed 11c vs CDAHFD-fed vehicle group", "value": "significant decrease"}, {"measurement": "Fat Body: Mean Diff., Vehicle vs. 11c", "setting": "HFD-fed C57BL/6J mice; 5mpk", "value": 1.897}, {"measurement": "Lean Body: Mean Diff., Vehicle vs. 11c", "setting": "HFD-fed C57BL/6J mice; 5mpk", "value": 3.43}, {"measurement": "fat mass", "setting": "HFD-fed C57BL/6J mice; 10 mpk daily oral gavage, 8 weeks, vs vehicle-treated mice", "value": "reduced"}, {"measurement": "Fat Body: Mean Diff., Vehicle vs. 11c", "setting": "HFD-fed C57BL/6J mice; 10mpk", "value": 12.76}, {"measurement": "Lean Body: Mean Diff., Vehicle vs. 11c", "setting": "HFD-fed C57BL/6J mice; 10mpk", "value": 4.653}, {"measurement": "Body Mass Analysis (%) Fat body mass", "setting": "HFD-fed C57BL/6J mice; 5mpk, 5 mg/kg", "value": 34.69, "unit": "%"}, {"measurement": "Body Mass Analysis (%) Lean body mass", "setting": "HFD-fed C57BL/6J mice; 5mpk, 5 mg/kg", "value": 52.41, "unit": "%"}, {"measurement": "Body Mass Analysis (%) Fat body mass", "setting": "HFD-fed C57BL/6J mice; 5mpk, 5 mg/kg, group mean", "value": 34.7, "unit": "%"}, {"measurement": "Body Mass Analysis (%) Lean body mass", "setting": "HFD-fed C57BL/6J mice; 5mpk, 5 mg/kg, group mean", "value": 52.4, "unit": "%"}, {"measurement": "Body Mass RAW Fat body mass", "setting": "HFD-fed C57BL/6J mice; 5mpk, 5 mg/kg, group mean", "value": 15.9}, {"measurement": "Body Mass RAW Lean body mass", "setting": "HFD-fed C57BL/6J mice; 5mpk, 5 mg/kg, group mean", "value": 23.8}, {"measurement": "Body Weight (body mass sheet)", "setting": "HFD-fed C57BL/6J mice; 5mpk, 5 mg/kg", "value": "45.7 and 40.4 and 39.5 and 37 and 43.5 and 51 and 45.4"}, {"measurement": "Body Mass Analysis (%) Fluid", "setting": "HFD-fed C57BL/6J mice; 5mpk, 5 mg/kg, mean", "value": 6.8, "unit": "%"}, {"measurement": "Body Mass RAW Fluid", "setting": "HFD-fed C57BL/6J mice; 5mpk, 5 mg/kg, mean", "value": 3.1}, {"measurement": "Body Mass Analysis (%) Fat body mass", "setting": "HFD-fed C57BL/6J mice; 5mpk, listed as 11C, 5 mg/kg", "value": "42.9% and 30.1% and 27.5% and 28.0% and 34.3% and 39.1% and 41.1%"}, {"measurement": "Body Mass Analysis (%) Fluid", "setting": "HFD-fed C57BL/6J mice; 5mpk, listed as 11C, 5 mg/kg", "value": "7.2% and 5.5% and 5.6% and 5.7% and 8.1% and 8.2% and 7.4%"}, {"measurement": "Body Mass Analysis (%) Lean body mass", "setting": "HFD-fed C57BL/6J mice; 5mpk, listed as 11C, 5 mg/kg", "value": "50.9% and 41.8% and 44.8% and 51.8% and 63.0% and 63.1% and 51.4%"}, {"measurement": "Body Mass RAW Fat body mass", "setting": "HFD-fed C57BL/6J mice; 5mpk, listed as 11C, 5 mg/kg", "value": "19.5 and 15.6 and 13.7 and 11.6 and 14.0 and 17.9 and 18.8"}, {"measurement": "Body Mass RAW Fluid", "setting": "HFD-fed C57BL/6J mice; 5mpk, listed as 11C, 5 mg/kg", "value": "3.3 and 2.8 and 2.4 and 3.7 and 3.4"}, {"measurement": "Body Mass RAW Lean body mass", "setting": "HFD-fed C57BL/6J mice; 5mpk, listed as 11C, 5 mg/kg", "value": "23.2 and 21.7 and 22.3 and 21.5 and 25.8 and 28.9 and 23.5"}, {"measurement": "Body Mass Analysis (%) Fluid", "setting": "HFD-fed C57BL/6J mice; 10mpk, 10 mg/kg", "value": "7.1% and 5.8% and 4.8% and 8.2% and 9.4%"}, {"measurement": "Body Mass RAW Fat body mass", "setting": "HFD-fed C57BL/6J mice; 10mpk, 10 mg/kg", "value": "8.4 and 13.9 and 12.4 and 15.4 and 9.5 and 5.7"}, {"measurement": "Body Mass RAW Fluid", "setting": "HFD-fed C57BL/6J mice; 10mpk, 10 mg/kg", "value": "3.2 and 3.0 and 2.4 and 3.4 and 3.9 and 2.2"}, {"measurement": "Body Mass RAW Lean body mass", "setting": "HFD-fed C57BL/6J mice; 10mpk, 10 mg/kg", "value": "22.2 and 25.2 and 20.6 and 25.5 and 23.2 and 23.1"}, {"measurement": "Body Mass RAW Lean body mass", "setting": "HFD-fed C57BL/6J mice; 10mpk, 10 mg/kg, group mean", "value": 23.3}, {"measurement": "Body Weight (body mass sheet)", "setting": "HFD-fed C57BL/6J mice; 10mpk, 10 mg/kg", "value": "35.7 and 43.1 and 36.3 and 45.2 and 38.2 and 33.4"}, {"measurement": "Body Weight (body mass sheet)", "setting": "HFD-fed C57BL/6J mice; 10mpk, 10 mg/kg, mean", "value": 38.7}, {"measurement": "Body Mass Analysis (%) Fluid", "setting": "HFD-fed C57BL/6J mice; 10mpk, 10 mg/kg, mean", "value": 6.7, "unit": "%"}, {"measurement": "Body Mass RAW Fat body mass", "setting": "HFD-fed C57BL/6J mice; 10mpk, 10 mg/kg, mean", "value": 10.9}]}]}
